Measured values reported in US10961189B2, “Spiro-lactam NMDA receptor modulators and uses thereof” (Aptinyx Inc., priority 2016, dated 2021).
Like-named read-outs stand apart in the source and are kept apart here.

Assays:
NMDAR2B = molecular target: T1, NMDAR2B (Homo sapiens, UniProt Q13224); experiment: [3H]MK-801 binding in NMDAR expressing HEK cell membranes (facilitation of NMDAR activation); assay type: biochemical; settings: 50 μM glutamate; for Emax: 0.25 h, read-out: A: % maximal [3H]MK-801 binding relative to 1 mM glycine; for EC50: read-out: B: log EC50 (converted)
T1 construct: expressed in transfected cells; host or cells: HEK cells (membrane extract)
T1 sequence (Q13224 27-1484, species assumed, other chains not shown): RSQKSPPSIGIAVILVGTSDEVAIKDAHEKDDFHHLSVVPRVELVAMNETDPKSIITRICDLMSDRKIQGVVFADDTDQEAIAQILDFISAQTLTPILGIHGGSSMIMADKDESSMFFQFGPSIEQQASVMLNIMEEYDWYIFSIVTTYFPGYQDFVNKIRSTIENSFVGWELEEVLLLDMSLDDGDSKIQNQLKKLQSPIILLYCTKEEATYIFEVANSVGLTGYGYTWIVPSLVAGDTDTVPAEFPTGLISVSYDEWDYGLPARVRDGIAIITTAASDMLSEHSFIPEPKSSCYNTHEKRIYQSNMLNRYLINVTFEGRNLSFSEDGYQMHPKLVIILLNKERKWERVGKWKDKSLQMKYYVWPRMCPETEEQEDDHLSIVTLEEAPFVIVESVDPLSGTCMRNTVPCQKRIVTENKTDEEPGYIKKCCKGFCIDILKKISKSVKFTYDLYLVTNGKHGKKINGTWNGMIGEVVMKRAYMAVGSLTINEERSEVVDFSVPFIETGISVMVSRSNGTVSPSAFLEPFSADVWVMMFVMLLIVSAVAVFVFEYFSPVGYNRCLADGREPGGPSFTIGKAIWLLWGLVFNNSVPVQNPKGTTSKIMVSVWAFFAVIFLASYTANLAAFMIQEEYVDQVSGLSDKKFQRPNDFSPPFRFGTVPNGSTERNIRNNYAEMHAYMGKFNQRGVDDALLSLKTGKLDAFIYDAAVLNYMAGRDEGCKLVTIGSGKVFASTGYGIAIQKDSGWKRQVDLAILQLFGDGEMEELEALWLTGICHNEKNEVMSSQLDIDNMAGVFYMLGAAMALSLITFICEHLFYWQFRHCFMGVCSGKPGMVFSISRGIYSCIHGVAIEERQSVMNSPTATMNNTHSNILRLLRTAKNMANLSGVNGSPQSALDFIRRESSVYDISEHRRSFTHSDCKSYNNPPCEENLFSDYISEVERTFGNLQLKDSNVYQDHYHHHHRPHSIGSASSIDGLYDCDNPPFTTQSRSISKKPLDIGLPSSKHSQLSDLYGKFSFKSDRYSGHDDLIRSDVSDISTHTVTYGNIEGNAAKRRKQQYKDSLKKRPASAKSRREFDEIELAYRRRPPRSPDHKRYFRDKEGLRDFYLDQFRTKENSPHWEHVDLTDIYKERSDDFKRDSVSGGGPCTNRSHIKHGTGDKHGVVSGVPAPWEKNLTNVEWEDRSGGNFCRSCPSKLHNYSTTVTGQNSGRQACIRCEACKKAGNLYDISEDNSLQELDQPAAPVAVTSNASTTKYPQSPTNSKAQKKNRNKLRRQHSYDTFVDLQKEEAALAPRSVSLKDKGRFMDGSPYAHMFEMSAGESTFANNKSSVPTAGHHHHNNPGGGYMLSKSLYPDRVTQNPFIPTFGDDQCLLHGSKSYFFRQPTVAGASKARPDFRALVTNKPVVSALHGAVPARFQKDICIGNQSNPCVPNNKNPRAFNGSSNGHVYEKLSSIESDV
Protocol: (§1) Assays were conducted as described by Moskal et al., “GLYX-13: a monoclonal antibody-derived peptide that acts as an N-methyl-D-aspartate receptor modulator,” Neuropharmacology, 49, 1077-87, 2005. These studies were designed to determine if the test compounds act to facilitate NMDAR activation in NMDAR2A, NMDAR2B, NMDAR2C or NMDAR2D expressing HEK cell membranes as measured by increases in [^3H]MK-801 binding.
(§2) In the assay, 300 μg of NMDAR expressing HEK cell membrane extract protein was preincubated for 15 minutes at 25° C. in the presence of saturating concentrations of glutamate (50 μM) and varying concentrations of test compound (1×10^15M−1×10^−7M), or 1 mM glycine. Following the addition of 0.3 μCi of [^3H]MK-801 (22.5 Ci/mmol), reactions were again incubated for 15 minutes at 25° C. (nonequilibrium conditions). Bound and free [^3H]MK-801 were separated via rapid filtration using a Brandel apparatus.
(§3) In analyzing the data, the DPM (disintegrations per minute) of [^3H]MK-801 remaining on the filter were measured for each concentration of test compound or for 1 mM glycine. The DPM values for each concentration of a ligand (N=2) were averaged. The baseline value was determined from the best fit curve of the DPM values modeled using the GraphPad program and the log(agonist) vs. response (three parameters) algorithm was then subtracted from all points in the dataset. The % maximal [^3H]MK-801 binding was then calculated relative to that of 1 mM glycine: all baseline subtracted DPM values were divided by the average value for 1 mM glycine. The EC50 and % maximal activity were then obtained from the best fit curve of the % maximal [^3H]MK-801 binding data modelled using the GraphPad program and the log(agonist) vs. response (three parameters) algorithm.
(§4) The tables below summarize the results for the wild type NMDAR agonists NMDAR2A, NMDAR2B, NMDAR2C, and NMDAR2D, and whether the compound is not an agonist (−), is an agonist (+), or is a strong agonist (++), where column A is based on the % maximal [^3H]MK-801 binding relative to 1 mM glycine (−=0; <100%=+; and >100%=++); and column B is based on log EC50 values (0=−; ≥1×10^−9 M (e.g., −8)=+; and <1×10^−9 M (e.g., −10)=++).

NMDAR2A = molecular target: T2, NMDAR2A (Homo sapiens, UniProt Q12879); experiment: as above; assay type: biochemical; settings: 50 μM glutamate; for EC50: read-out: B: log EC50 (converted); for Emax: 0.25 h, read-out: A: % maximal [3H]MK-801 binding relative to 1 mM glycine
T2 construct: expressed in transfected cells; host or cells: HEK cells (membrane extract)
T2 sequence (Q12879 23-1464, species assumed, other chains not shown): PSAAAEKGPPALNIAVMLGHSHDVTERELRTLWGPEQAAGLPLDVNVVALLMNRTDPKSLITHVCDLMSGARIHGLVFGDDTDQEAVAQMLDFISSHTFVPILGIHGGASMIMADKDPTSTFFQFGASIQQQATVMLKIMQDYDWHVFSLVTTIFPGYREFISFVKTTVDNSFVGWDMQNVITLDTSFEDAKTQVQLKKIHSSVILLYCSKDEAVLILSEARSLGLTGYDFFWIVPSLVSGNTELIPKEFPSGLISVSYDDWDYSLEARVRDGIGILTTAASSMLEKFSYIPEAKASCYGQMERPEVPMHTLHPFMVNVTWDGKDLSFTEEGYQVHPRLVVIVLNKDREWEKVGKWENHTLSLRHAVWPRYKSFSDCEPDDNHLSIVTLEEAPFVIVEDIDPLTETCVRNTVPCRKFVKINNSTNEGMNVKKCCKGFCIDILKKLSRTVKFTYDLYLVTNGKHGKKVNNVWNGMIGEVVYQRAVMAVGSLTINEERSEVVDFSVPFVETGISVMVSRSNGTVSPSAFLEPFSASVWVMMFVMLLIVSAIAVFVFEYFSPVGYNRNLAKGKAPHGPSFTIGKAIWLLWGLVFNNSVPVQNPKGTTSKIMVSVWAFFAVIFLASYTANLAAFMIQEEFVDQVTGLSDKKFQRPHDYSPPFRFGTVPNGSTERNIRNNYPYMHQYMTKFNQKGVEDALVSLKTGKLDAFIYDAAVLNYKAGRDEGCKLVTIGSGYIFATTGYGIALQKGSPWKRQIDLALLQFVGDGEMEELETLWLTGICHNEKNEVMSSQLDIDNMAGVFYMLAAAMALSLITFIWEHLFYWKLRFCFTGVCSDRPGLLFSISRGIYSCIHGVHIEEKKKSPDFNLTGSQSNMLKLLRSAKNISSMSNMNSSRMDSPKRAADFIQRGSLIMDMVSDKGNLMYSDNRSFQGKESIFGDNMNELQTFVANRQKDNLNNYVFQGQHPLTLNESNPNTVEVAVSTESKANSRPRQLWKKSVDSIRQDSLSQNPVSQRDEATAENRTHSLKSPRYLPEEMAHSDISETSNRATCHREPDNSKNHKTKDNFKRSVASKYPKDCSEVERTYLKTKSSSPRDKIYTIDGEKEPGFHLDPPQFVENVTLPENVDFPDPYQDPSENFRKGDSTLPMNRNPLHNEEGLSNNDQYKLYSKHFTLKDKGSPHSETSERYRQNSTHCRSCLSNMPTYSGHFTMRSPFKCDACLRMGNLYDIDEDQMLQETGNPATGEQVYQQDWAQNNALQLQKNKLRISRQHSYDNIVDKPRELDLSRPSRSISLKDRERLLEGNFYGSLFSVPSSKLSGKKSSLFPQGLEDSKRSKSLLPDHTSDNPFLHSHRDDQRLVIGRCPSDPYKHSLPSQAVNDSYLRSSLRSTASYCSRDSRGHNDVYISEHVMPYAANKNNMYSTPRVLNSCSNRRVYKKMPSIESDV
Protocol: as §1, §2, §3, §4

IV pharmacokinetics = assay type: in vivo, Sprague Dawley rats; settings: rat, normal saline (* in 5% NMP, 5% Solutol HS, 90% normal saline); for AUC(0-t) / half-life / C0 / Vd: Sprague-Dawley, in vivo; for C0: read-out: C0; for Vd: read-out: Vss
Source text: The table below summarizes the results of the IV pharmacokinetics.

[1] = oral pharmacokinetics (plasma, brain, CSF); assay type: in vivo, Sprague Dawley rats; settings: rat, per os 10 mg/kg; for AUC(0-t) / bioavailability / Tmax / Cmax: Sprague-Dawley, plasma, po; for Tmax: normal saline (* in 5% NMP, 5% Solutol HS, 90% normal saline), read-out: Tmax; for Cmax: read-out: Cmax
Protocol: In another experiment, Sprague Dawley rats were dosed per os using a normal saline formulation containing 10 mg/kg of the compounds identified in the table below (except for the compounds marked with an asterisk (“*”) that were delivered in 5% NMP, 5% Solutol® HS and 90% normal saline formulation). Plasma, brain, and CSF samples were analyzed at various time points over a 24 hour period.

Row | Compound | Emax (NMDAR2B) [%] | A: % maximal [3H]MK-801 binding relative to 1 mM glycine (NMDAR2A) | EC50 (NMDAR2A) [nM] | A: % maximal [3H]MK-801 binding relative to 1 mM glycine (NMDAR2B) | EC50 (NMDAR2B) [nM] | Emax (NMDAR2A) [%] | CI (IV pharmacokinetics; intravenous 2 mg/kg) [L/h/kg] | CSF Cmax [1] [µg/mL] | Brain Cmax [1] [µg/mL] | other results
1 | CC1CCC2(CC1)CN(C(CO)C(=O)O)C2=O (single isomer, unassigned) [EM, 3-hydroxy-2-(7-methyl-1-oxo-2-azaspiro[3.5]nonan-2-yl)propanoic acid] |  |  | < 1 | − (−=0) |  | < 100 |  |  |  | 
2 | CC1CCC2(CC1)CN(C(CCC(N)=O)C(N)=O)C2=O (single isomer, unassigned) [BE, 2-(7-methyl-1-oxo-2-azaspiro[3.5]nonan-2-yl)pentanediamide] | < 100 | − (−=0) |  |  | < 1 |  |  |  |  | 
3 | COc1ccc(CN2CC3(CCC(OCc4ccccc4)CC3)C2=O)cc1 (single isomer, unassigned) [AE, 7-(benzyloxy)-2-(4-methoxybenzyl)-2-azaspiro[3.5]nonan-1-one] |  | + (<100%=+) | < 1 | − (−=0) |  |  |  |  |  | 
4 | CC1CCC2(CC1)CN(CC(N)=O)C2=O (stereo not shown) [Compound BC, 2-(7-methyl-1-oxo-2-azaspiro[3.5]nonan-2-yl)acetamide] | 0 |  | < 1 |  |  | < 100 | 8.7078 | 1.362 | 2.321 | AUC(0-t) (IV pharmacokinetics; iv, 2 mg/kg): 0.233 µg·h/mL; half-life (IV pharmacokinetics; iv, 2 mg/kg): 13.2 min; C0 (IV pharmacokinetics; iv, 2 mg/kg): 0.658 µg/mL; Vd (IV pharmacokinetics; iv, 2 mg/kg): 2.67 L/kg; AUC(0-t) ([1]; 10 mg/kg): 0.612 µg·h/mL; bioavailability ([1]; 10 mg/kg): 52%; Tmax ([1]; 10 mg/kg): 15 min; Cmax ([1]; 10 mg/kg): 0.869 µg/mL
5 | CC1CCC2(CC1)CN(C(CO)C(=O)O)C2=O (single isomer, unassigned) [EN, 3-hydroxy-2-(7-methyl-1-oxo-2-azaspiro[3.5]nonan-2-yl)propanoic acid] |  | + (<100%=+) | < 1 | + (<100%=+) | < 1 |  | 1.163 | 0.022 | 0.061 | AUC(0-t) (IV pharmacokinetics; iv, 2 mg/kg): 1.76 µg·h/mL; half-life (IV pharmacokinetics; iv, 2 mg/kg): 440 min; C0 (IV pharmacokinetics; iv, 2 mg/kg): 9.44 µg/mL; Vd (IV pharmacokinetics; iv, 2 mg/kg): 1.16 L/kg; AUC(0-t) ([1]; 10 mg/kg): 2.21 µg·h/mL; bioavailability ([1]; 10 mg/kg): 25%; Tmax ([1]; 10 mg/kg): 15 min; Cmax ([1]; 10 mg/kg): 1.49 µg/mL
6 | CC1CCC2(CC1)CN([C@H](C(N)=O)[C@@H](C)O)C2=O (mixture of isomers) [Compound AN, (2S,3R)-3-hydroxy-2-(7-methyl-1-oxo-2-azaspiro[3.5]nonan-2-yl)butanamide] | 0 |  | < 1 |  |  | < 100 | 1.346 | 1.38482 | 1.50176 | AUC(0-t) (IV pharmacokinetics; iv, 2 mg/kg): 1.47 µg·h/mL; half-life (IV pharmacokinetics; iv, 2 mg/kg): 19.2 min; C0 (IV pharmacokinetics; iv, 2 mg/kg): 3.1 µg/mL; Vd (IV pharmacokinetics; iv, 2 mg/kg): 0.59 L/kg; AUC(0-t) ([1]; 10 mg/kg): 4.85 µg·h/mL; bioavailability ([1]; 10 mg/kg): 66%; Tmax ([1]; 10 mg/kg): 15 min; Cmax ([1]; 10 mg/kg): 4.33 µg/mL
7 | CN(Cc1ccccc1)C1CCC2(CC1)CNC2=O (stereo not shown) [EZ] |  | + (<100%=+) | < 1 | + (<100%=+) | < 1 |  |  |  |  | 
8 | O=C1NCC12CCC(O)CC2 (stereo not shown) [AK, 7-hydroxy-2-azaspiro[3.5]nonan-1-one] |  |  |  | − (−=0) |  | 0 |  |  |  | 
9 | O=C1NCC12CCC(OCc1ccccc1)CC2 (stereo not shown) [AJ, 7-(benzyloxy)-2-azaspiro[3.5]nonan-1-one] | 0 |  |  |  |  | 0 |  |  |  | 
10 | CN(Cc1ccccc1)C1CCC2(CC1)CNC2=O (stereo not shown) [EY] | < 100 | − (−=0) |  |  | < 1 |  | 1.646 | 0.53909 | 1.83334 | AUC(0-t) (IV pharmacokinetics; intravenous 2 mg/kg): 1.21 µg·h/mL; half-life (IV pharmacokinetics; intravenous 2 mg/kg): 33.6 min; C0 (IV pharmacokinetics; intravenous 2 mg/kg): 2.1 µg/mL; Vd (IV pharmacokinetics; intravenous 2 mg/kg): 1.09 L/kg; bioavailability [1]: 48%; Tmax [1]: 30 min; AUC(0-t) [1]: 2.92 µg·h/mL; Cmax [1]: 1.13 µg/mL
11 | COc1ccc(CN2CC3(CCC(OCc4ccccc4)CC3)C2=O)cc1 (single isomer, unassigned) [AF, 7-(benzyloxy)-2-(4-methoxybenzyl)-2-azaspiro[3.5]nonan-1-one] |  | − (−=0) |  | + (<100%=+) | < 1 |  |  |  |  | 

Now from value to compound, other results behind:

Row | Emax (NMDAR2B) [%] | A: % maximal [3H]MK-801 binding relative to 1 mM glycine (NMDAR2A) | EC50 (NMDAR2A) [nM] | A: % maximal [3H]MK-801 binding relative to 1 mM glycine (NMDAR2B) | EC50 (NMDAR2B) [nM] | Compound | Emax (NMDAR2A) [%] | CI (IV pharmacokinetics; intravenous 2 mg/kg) [L/h/kg] | CSF Cmax [1] [µg/mL] | Brain Cmax [1] [µg/mL] | other results
12 | 0 | + (<100%=+) | < 1 |  |  | O=C1N(OCc2ccccc2)CC12CCC(O)CC2 (stereo not shown) [FE] |  |  |  |  | 
13 | 0 |  |  |  |  | COc1ccc(CN2CC3(CCC(C)CC3)C2=O)cc1 (stereo not shown) [Compound AC, 2-(4-methoxybenzyl)-7-methyl-2-azaspiro[3.5]nonan-1-one] | 0 |  |  |  | 
14 | 0 |  | < 1 |  |  | CC1CCC2(CC1)CN([C@@H](CCC(=O)O)C(=O)O)C2=O (stereo partly drawn) [EQ, (S)-2-(7-methyl-1-oxo-2-azaspiro[3.5]nonan-2-yl)pentanedioic acid] | < 100 |  |  |  | 
15 | > 100 |  | < 1 |  | < 1 | O=C1NCC12CCC(NCc1ccccc1)CC2 (stereo not shown) [EX] | < 100 | 3.031 | 0.45946 | 2.79998 | AUC(0-t) (IV pharmacokinetics; intravenous 2 mg/kg): 0.659 µg·h/mL; half-life (IV pharmacokinetics; intravenous 2 mg/kg): 70.8 min; C0 (IV pharmacokinetics; intravenous 2 mg/kg): 1.34 µg/mL; Vd (IV pharmacokinetics; intravenous 2 mg/kg): 2.71 L/kg; bioavailability [1]: 100%; Tmax [1]: 120 min; AUC(0-t) [1]: 7.38 µg·h/mL; Cmax [1]: 3.19 µg/mL
16 |  | − (−=0) |  | − (−=0) |  | CCN(Cc1ccccc1)C1CCC2(CC1)CNC2=O (stereo not shown) [FA] |  |  |  |  | 
17 |  | + (<100%=+) | < 1 | + (<100%=+) | < 1 | CCN(Cc1ccccc1)C1CCC2(CC1)CNC2=O (stereo not shown) [FB] |  | 2.519 | 0.9818 | 3.63282 | AUC(0-t) (IV pharmacokinetics; intravenous 2 mg/kg): 0.782 µg·h/mL; half-life (IV pharmacokinetics; intravenous 2 mg/kg): 45 min; C0 (IV pharmacokinetics; intravenous 2 mg/kg): 0.981 µg/mL; Vd (IV pharmacokinetics; intravenous 2 mg/kg): 2.33 L/kg; bioavailability [1]: 87%; Tmax [1]: 30 min; AUC(0-t) [1]: 3.41 µg·h/mL; Cmax [1]: 1.59 µg/mL
18 | 0 |  |  |  |  | C[C@@H](O)[C@@H](C(N)=O)N1CC2(CCC(O)CC2)C1=O (stereo partly drawn) [Compound AM, (2S,3R)-3-hydroxy-2-(7-hydroxy-1-oxo-2-azaspiro[3.5]nonan-2-yl)butanamide] | 0 |  |  |  | 
19 |  | − (−=0) |  | − (−=0) |  | O=C1N(OCc2ccccc2)CC12CCC(O)CC2 (stereo not shown) [FF] |  |  |  |  | 
